In article doi:10.1101/2024.02.22.581678v1 (biorxiv, 2024) one finds Kd data, which are given here for three compounds.

The test addresses MeAmi_SBP. Kind of test: isothermal analysis of ligand-titrated DSF. It is filed as binding, Mesorhizobium sp. Particulars: 50 mM Tris, 300 mM NaCl, pH 7.4; 8.4 μM His6-tagged protein; one-site model.

The structures appear in SMILES notation.

A word on the Kd: it is the constant that tells how readily two partners part at equilibrium. High values mean lower affinity, low ones higher affinity.

`C[C@H](N)C(N)=O` [L-alaninamide] yielded a Kd of 1.53 µM.
As for `NC(=O)[C@@H](N)Cc1ccc(O)cc1` [L-tyrosinamide], the figure is 0.187 µM.
As for `NCC(N)=O` [glycinamide], the figure is 49.7 µM.
